Experimental data from patent publication US12534436B2, “Disubstituted adamantyl derivative or pharmaceutically acceptable salt thereof, and pharmaceutical composition for suppressing cancer growth comprising same as active ingredient” (ONECUREGEN CO., LTD., priority 2020, dated 2026).

What was measured:
[1] = tested on: various cancer cells; test: Cell viability by methylene blue colorimetric assay, various cancer cells; type: cell-based; settings: Homo sapiens; range over the cancer cell lines, methylene blue assay (FIG. 1B); read-out: GI50, proliferation of various cancer cells
Method: (§1) Among the newly synthesized adamantyl compounds, it was evaluated how compound 21c (LW1564, Compound 21-3), FIG. 1A) affected proliferation suppression of various cancer cells. Human breast cancer cells (MCF7), human cervical cancer cells (HeLa), human colorectal cancer cells (HCT116, HCT15, LoVo, SW480, SW620 and WiDr), human fibrosarcoma cells (HT1080), human gastric cancer cells (NCI-N87, NUGC3 and SNU484), human liver cancer cells (HepG2, HT17, Huh7, SHJ1 and SK-Hep1), human lung cancer cells (A549 and H1299), human pancreatic cancer cells (AsPC1 and MIA-PaCa2) and normal lung fibroblasts (CCD-34Lu and WI-38) were purchased from the American Type Culture Collection (Manassas, Virginia, USA) or KRIBB Cell Line Bank (Daejeon). For cell culture, cells were cultured in a DMEM medium (Gibco, Grand Island, New York, USA) supplemented with 5% (v/v) fetal bovine serum (WelGENE, Daegu, Korea) and 100 U/ml penicillin and 100 μg/ml streptomycin (Gibco). Cells were maintained at 37° C. in a humidified incubator with 5% CO2, and hypoxia and a multi-gas incubator (Sanyo, Osaka, Japan) was adjusted to 1% O2, 94% N2 and 5% CO2. Cell viability was determined by methylene blue colorimetric assay as described in the “Chou, T. C. […] The dye was eluted with 0.1% HCl (v/v) and quantified at 600 nm on a Molecular Devices EMax (Molecular Devices, CA, USA). […]

[2] = tested on: WI-38 normal lung fibroblasts; test: Cell viability by methylene blue colorimetric assay, normal cells WI-38; type: cell-based; settings: Homo sapiens, methylene blue assay (FIG. 1B), read-out: GI50, growth of normal cells WI-38
Method: as §1

[3] = tested on: HIF-1α; test: HIF-1α protein accumulation in other cancer cell lines under hypoxia; type: cell-based, human; settings: A549, WiDr, MIA-CaCa2 and HCT116 (FIG. 2D)
[4] = tested on: mitochondrial respiration; test: Oxygen consumption rate (OCR), Oxytherm Clark-type electrode, HepG2 cells; type: cell-based, human; settings: 2 μM, 6 hours (FIG. 3A)
Method: (§2) Compounds that suppress mitochondrial respiration promote degradation of HIF-1α by increasing cellular oxygen content. Accordingly, it was investigated whether LW1564 (compound 21-3) affected mitochondrial respiration by measuring the oxygen consumption rate (OCR). Oxygen consumption was measured using an Oxytherm Clark-type electrode system (Hansatech, Norfolk, UK) (Chou, T. C. Theoretical basis, experimental design, and computerized simulation of synergism and antagonism in drug combination studies. Pharmacol. Rev. 58, 621-681 (2006)). HepG2 cells (2×10^7) were cultured with 2 μM LW1564 (compound 21-3) for 6 hours, collected, and then OCR was measured at 37° C. for 5 minutes with a thermoregulated controlled circulating system. For […] studies, digitonin-permeabilised HepG2 cells (2×10^7) were read on a detection device containing 2 ml of respiratory buffer (0.25 M sucrose, 2 mM KH2PO4, 5 mM MgCl2, 1 mM EDTA, 1 mM ADP, 20 mM MOPS, pH 7.4). The following substrates, which provide electrons to the components in the ETC, were then added: 5 mM sodium pyruvate, 5 mM sodium malate, 5 mM sodium succinate, 5 mM L-ascorbic acid and 0.2 mM N,N,N,N-tetra methyl-p-phenylenediamine (TMPD). Complex I, III and IV inhibitors (rotenone, antimycin A and KCN, respectively) were added to a final concentration of 1 μM.

[5] = tested on: Complex II/III; test: Mitochondrial respiration assay, complex II/III (succinate); type: cell-based, human; settings: HepG2 cells (FIG. 4C)
Method: as §2, with “μM. […]” for “μM.”

[6] = tested on: Complex IV; test: Mitochondrial respiration assay, complex IV (ascorbate/TMPD); type: cell-based, human; settings: HepG2 cells (FIG. 4D)
Method: as §2, with “μM. […]” for “μM.”

[7] = tested on: HepG2 cells; test: HepG2 cell proliferation at different glucose concentrations; type: cell-based, human; settings: low glucose (3 mM) versus high glucose (25 mM) medium (FIG. 5C)
Method: The glycolytic function is activated in many cancer cells. Accordingly, it was investigated whether LW1564 (compound 21-3) affected cancer cell proliferation according to glucose concentration. […] Next, in order to investigate the combined effect of LW1564 (compound 21-3), […] on the proliferation of HepG2 cells, Combination Index (CI) and isobologram analysis were performed. The CI value quantitatively represents the correlation between two drugs through GI50 analysis indicating the cell proliferation suppression concentration, and synergistic, additive and antagonistic effects are defined as CI<1, CI=1 and CI>1.

[8] = tested on: HepG2 xenografted tumors; test: HepG2 xenograft mouse model; type: in vivo, mice
Description: In the HepG2 xenograft mouse model, the efficacy of LW1564 (compound 21-3) on tumor proliferation was investigated. All animal experiments were approved and performed according to the guidelines of the Institutional Animal Care and Use Committee of the Korea Research Institute of Bioscience & Biotechnology (Daejeon, Korea). Specific pathogen-free female nude mice (6 weeks old) were inoculated with HepG2 cells (1×10^7) subcutaneously on the right flank. When tumor volumes reached 100 to 150 mm^3, mice were randomly assigned to vehicle and LW1564 (compound 21-3) treatment groups (n=6). LW1564 (compound 21-3) (10 mg/kg) was administered intraperitoneally daily for 2 weeks. The tumor size was measured using a microcalliper, and the tumor volume was calculated using a standard volume: length×width^2×0.5. Significant differences between the two groups were determined by Student's t-test.

## COc1cc2c(cc1OC)CN(C(=O)C13CC4CC(C1)CC(c1ccc(OCC(=O)N5CCN(Cc6ccc(C(F)(F)F)cc6)CC5)cc1)(C4)C3)CC2 [Compound 21c, 2-(4-(3-(6,7-Dimethoxy-1,2,3,4-tetrahydroisoquinoline-2-carbonyl)adamantan-1-yl)phenoxy)-1-(4-(4-(trifluoromethyl)benzyl)piperazin-1-yl) ethanone]
[1]
  GI50: 0.4 to 4.6 µM
[2]
  GI50: > 20 µM
[3]
  HIF-1α protein accumulation in various cancer cell lines: significantly reduced HIF-1α protein accumulation
[4]
  oxygen consumption rate (OCR): significantly suppressed OCR
[5]
  oxygen consumption rate in the presence of succinate: did not affect the oxygen consumption rate
[6]
  oxygen consumption rate in the presence of ascorbate/TMPD: did not affect the oxygen consumption rate
[7]
  cell proliferation suppression according to glucose concentration: stronger cell proliferation suppression efficacy in cells in a medium with a low glucose concentration (3 mM)
[8]; 10 mg/kg intraperitoneally daily for 2 weeks (FIG. 6 middle)
  weight of the tumors removed from the mice: reduced
[8]; 10 mg/kg intraperitoneally daily for 2 weeks, female nude mice (FIG. 6 left)
  reduction in tumor size compared to the control group: 67%
